In US20140336109A1, “MODULATION OF GHRELIN LEVELS AND GHRELIN/UNACYLATED GHRELIN RATIO USING UNACYLATED GHRELIN” (Alize Pharma SAS, priority 2011, published 2014):
Where no end group is shown, it is not given here.

Columns and labels:
[1] = U.S. Pat. Nos. 8,222,217 and 8,318,664; cited from earlier work
[2] = test system: Sprague-Dawley rats; experiment: AG-induced food intake in rats; type: in vivo; details: rat; i.p. 42 μg/kg + AG 13 μg/kg; 30 min, 1 h, 2 h
Procedure: With respect to the experimental data presented in FIG. 8, Sprague-Dawley rats of 7 weeks of age, weighing between 275 g and 300 g, were fed a pellet diet ad libitum and were singly housed in plastic cage. The experiment was performed at 2.5 h after the onset of the light cycle in freely fed rats. The rates were i.p. injected simultaneously with vehicle plus vehicle, vehicle+AG (13 μg/kg) or cyclised UAG (6-13) (SEQ ID NO: 25) (42 μg/kg)+AG (13 μg/kg). Immediately after the completion of the i.p. injection in rats, the night-ad-libitum food was removed and replaced by 2 pellets for each animal, previously weighed, placed into the top of the cage. Food intake was calculated as the difference between the food weight before and after the feeding period at each time interval (30 min, 1 h, and 2 h). Cumulative food intake was calculated by summating the values of the different time periods.

[3] = test system: T2DM subjects; experiment: Side effects and laboratory safety parameters during UAG infusion; type: in vivo, human; details: during infusions with UAG 3 and 10 μg/kg/hr, 15 hours
Procedure: A continuous overnight (15 hours) infusion of two doses of UAG (3 μg UAG/kg/hr and 10 μg UAG/kg/hr) versus placebo in a cross-over model on the AG concentrations was performed in eight overweight subjects with type 2 diabetes. FIG. 1 depicts a schematic representation of the study protocol. Glucose and insulin responses to a standard breakfast meal (SBM) in the subjects and reasonable metabolic control were assessed.
Study design—Single-center, investigator initiated, double blind and placebo controlled randomized study. During the first visit medical history, medication use and vital signs of subjects were checked. Blood samples were also taken for chemistry and hematology analysis. […]
Standard breakfast meal (SBM) consisted of: • 3 slices wheat bread; p1 3 portions of margarine; • 2 slices of cheese (48% fat); • 1 portion of jam; • 1 cup of whole milk; and • 1 boiled egg; for a total of 714 kcal (17% proteins; 46% fat; and 37% carbohydrates). […] At each of the 3 visits, the following safety parameters were assessed: hemoglobin, hematocrit, platelet count, WBC count, RBC count, and differential and were determined using Sysmex XE 2100, Firma Sysmex, Ecustraat 11, 4879 NP Etten-Leur. […] Serum glucose levels (using the in-house glucokinase assay) were also assessed every 30 minutes and starting before, and continuing for 4 hours after, the SBM. […]

## Glu-His-Gln-Arg-Val (EHQRV; listed as Homo sapiens) [UAG (8-12)]
[1]
  activity on glucose, insulin and lipid metabolisms relative to UAG full length: retain the activity of UAG full length

## SPEHQRVQ [UAG (6-13)]
[1]
  activity on glucose, insulin and lipid metabolisms relative to UAG full length: retain the activity of UAG full length

## His-Gln-Arg (HQR; listed as Homo sapiens) [UAG (9-11)]
[1]
  activity on glucose, insulin and lipid metabolisms relative to UAG full length: retain the activity of UAG full length

## Ser-Pro-Glu-His-Gln-Arg-Val-Gln (cycl) (SPEHQRVQ; also: cyclic, linkage type not given here; listed as Homo sapiens) [cyclic UAG (6-13)]
[2]
  orexigenic effects (food intake) induced by AG: able to counteract the orexigenic effects induced by AG

## CC(C)C[C@H](NC(=O)[C@H](CCCCN)NC(=O)[C@H](C)NC(=O)[C@@H]1CCCN1C(=O)[C@@H]1CCCN1C(=O)[C@H](CCCCN)NC(=O)[C@H](CCCCN)NC(=O)[C@H](CO)NC(=O)[C@H](CCC(=O)O)NC(=O)[C@H](CCCCN)NC(=O)[C@H](CCCNC(=N)N)NC(=O)[C@H](CCC(N)=O)NC(=O)[C@H](CCC(N)=O)NC(=O)[C@@H](NC(=O)[C@H](CCCNC(=N)N)NC(=O)[C@H](CCC(N)=O)NC(=O)[C@H](Cc1cnc[nH]1)NC(=O)[C@H](CCC(=O)O)NC(=O)[C@@H]1CCCN1C(=O)[C@H](CO)NC(=O)[C@H](CC(C)C)NC(=O)[C@H](Cc1ccccc1)NC(=O)[C@H](CO)NC(=O)[C@H](CO)NC(=O)CN)C(C)C)C(=O)N[C@@H](CCC(N)=O)C(=O)N1CCC[C@H]1C(=O)N[C@@H](CCCNC(=N)N)C(=O)O [UAG]
[3]
  laboratory evaluations (chemistry or parameters): no significant changes
  side effects reported by subjects: did not report more side effects than placebo

## Glu-His-Gln-Arg (EHQR; listed as Homo sapiens) [UAG (8-11)]
[1]
  activity on glucose, insulin and lipid metabolisms relative to UAG full length: retain the activity of UAG full length

## EHQRVQ [UAG (8-13)]
[1]
  activity on glucose, insulin and lipid metabolisms relative to UAG full length: retain the activity of UAG full length

## His-Gln-Arg-Val (HQRV; listed as Homo sapiens) [UAG (9-12)]
[1]
  activity on glucose, insulin and lipid metabolisms relative to UAG full length: retain the activity of UAG full length
